The conditions of series [1]: 101.33 kPa, Liquid, Vibrating tube method.
Series [2] in a line: refractive index (Na D-line) (dimensionless). To be noted: 298.15 K; 101.33 kPa; Liquid; Standard Abbe refractometry.

± gives the expanded uncertainty stated by the source.

This is an account of results in the NIST ThermoML archive (doi:10.1021/je3013414).

Usually mass density stands for the mass of a sample divided by its volume. In general, refractive index refers to a measure of how strongly the sample bends light.

As to `CCCCn1cc[n+](C)c1.F[P-](F)(F)(F)(F)F` [1-butyl-3-methylimidazolium hexafluorophosphate], the mass density in series [1] (303.15 K) worked out at 1361.3 ± 1.7 kg/m3; in series [1] (313.15 K), 1353 ± 1.6 kg/m3; in series [1] (323.15 K), 1344.8 ± 1.6 kg/m3; in series [1] (333.15 K), 1336.7 ± 1.6 kg/m3; in series [1] (343.15 K), 1328.5 ± 1.6 kg/m3; in series [1] (353.15 K), 1320.5 ± 1.6 kg/m3. Further, the mass density in series [1] (363.15 K) was determined as 1312.4 ± 1.5 kg/m3. The refractive index in series [2] came out at 1.4106 ± 0.0005.
Take `CCOS(=O)(=O)[O-].CCn1cc[n+](C)c1` [1-ethyl-3-methylimidazolium ethyl sulfate]: the mass density in series [1] (303.15 K) is on record as 1233.7 ± 1.4 kg/m3; in series [1] (313.15 K), 1226.9 ± 1.3 kg/m3; in series [1] (323.15 K), 1220.2 ± 1.3 kg/m3; in series [1] (333.15 K) it was 1213.6 ± 1.3 kg/m3; in series [1] (343.15 K), 1207 ± 1.3 kg/m3; in series [1] (353.15 K) it was 1200.4 ± 1.3 kg/m3. In series [1] (363.15 K), the mass density was found to be 1193.9 ± 1.3 kg/m3. For the same compound, the refractive index in series [2] worked out at 1.4106 ± 0.0005.
